Experimental data published in the NIST ThermoML archive (doi:10.1016/j.tca.2012.07.004).

Assay: xn = mol fraction of the nth substance listed
Conditions: 101 kPa, Liquid; for mass density: Vibrating tube method; for viscosity: Vibrating wire viscometry; for speed of sound: ultrasonic interferometer

C[NH+](C)C.O=S(=O)([O-])O [trimethylammonium hydrogen sulfate] + CN1CCCC1=O
Conditions | mass density, 308.15 K [kg/m3] | mass density, 313.15 K [kg/m3] | speed of sound, 308.15 K [m/s] | speed of sound, 313.15 K [m/s] | viscosity, 308.15 K [mPa·s] | viscosity, 313.15 K [mPa·s]
x1 = 0.0183 | 1029.88 | 1024.27 | 1529 | 1521 | 1.91 | 1.45
x1 = 0.0369 | 1041.19 | 1035.08 | 1530 | 1523 | 2.48 | 1.76
x1 = 0.0964 | 1073.31 | 1066.52 | 1534 | 1526 | 4.55 | 3.52
x1 = 0.138 | 1091.47 | 1083.97 | 1536 | 1528 | 5.68 | 4.79
x1 = 0.2014 | 1115.24 | 1107.81 | 1539 | 1530 | 7.18 | 6.19
x1 = 0.3115 | 1146.54 | 1135.87 | 1545 | 1539 | 8.38 | 7.09
x1 = 0.3587 | 1155.39 | 1145.43 | 1549 | 1541 | 8.48 | 7.14
x1 = 0.4311 | 1170.29 | 1157.43 | 1553 | 1545 | 8.26 | 6.99
x1 = 0.5579 | 1196.63 | 1185.37 | 1560 | 1550 | 7.19 | 6.15
x1 = 0.6955 | 1239.34 | 1225.55 | 1561 | 1551 | 5.89 | 4.7
x1 = 0.775 | 1273.99 | 1260.83 | 1560 | 1550 | 5.25 | 3.99
x1 = 0.843 | 1315.25 | 1295.67 | 1559 | 1553 | 4.4 | 3.52
x1 = 0.9375 | 1383.15 | 1369.46 | 1558 | 1552 | 4.28 | 3.35
x1 = 0.97 | 1417.02 | 1404.25 | 1557 | 1552 | 4.01 | 3.23
x1 = 1 | 1463.5 | 1455.63 | 1556 | 1552 | 3.94 | 3.16
